Experiment [1] deals with normal male Wistar rats. As to the kind of experiment: Intravenous insulin tolerance test (IVITT). To be noted: 5 μmol/kg i.v.; for insulin-potentiating effect on decreasing blood glucose in IVITT (in words): from 30 min after commencement; for Reduction in Blood Glucose: 0.1 U insulin/kg. The class given is in vivo, rat. On the procedure:
IVITTs (0.1 U insulin/kg body weight) were performed on overnight-fasted Wistar male rats as previously described (Lim et al, 1992). Blood samples were taken for glucose estimation at 15, 30, 45, 60 min after the commencement of the tests. Six animals in each group were used.
IVITTs were performed on normal male Wistar rats after a single intravenous (i.v.) injection of the hGH peptide analogues at a dose of 5 μmol/kg body weight. The insulin-potentiating effects of peptides 6, 7, 8 and 10 on decreasing blood glucose levels of treated animals became significant since 30 min after the commencement of the test. Bioactivity was retained when the Arg^8 or Phe^10 residue of Asu^11-hGH(6-13) peptide was substituted with Lys or Tyr respectively (1.92±0.17 or 1.62±0.18 vs. 1.65±0.12 mmol/L at 45 min), as shown in Table 3. However, no insulin-potentiating effect was observed when either Arg^8 or Phe^10 was substituted by Gly (0.92±0.08 or 1.08±0.08 mmol/L respectively vs. 1.00±0.10 mmol/L of control at 45 min). Asu^11-hGH(8-13) also elicited this insulin-potentiating effect, but with lower potency.

Experiment [2] has as its system insulin-resistant Zucker fatty (fa/fa) rats. To be noted: glucose clamp technique; cited from earlier work.
Experiment [3] addresses insulin receptor tyrosine kinase (Homo sapiens, UniProt P06213). To be noted: cited from earlier work.
Experiment [4] deals with Zucker (fa/fa) rat hemidiaphragm muscle. As to the kind of experiment: In vitro glycogen synthesis (glucose incorporation into glycogen) in hemidiaphragm muscle with exogenous insulin. Format: cell-based. As to conditions: with 1 mU/ml exogenous insulin. As for the experimental part:
In vitro insulin-potentiating effects of the synthetic peptide analogues were assessed by measuring the rates of exogenous glucose incorporation into glycogen in rat hemidiaphragms (Lim et al, 1992). Hemidiaphragms from overnight-fasted Zucker fatty(fa/fa) female rats were dissected, and divided into segments of approximate 35-50 mg each. Tissues from the same rat were used for all groups. The tissue was incubated in 2 ml of Krebs-Ringer bicarbonate (KRB) buffer (pH 7.4) containing [^14C]glucose (5.5 mM, final specific activity 0.05 mCi/mmol) under an atmosphere of 95% 02-5% CO2 at 37° C. for 1.5 hr. After incubation, tissues were removed, washed with cold buffer and blotted. Tissues were digested, the muscle glycogen was precipitated and the ^14C-radioactivity was counted in a Wallac 1410 liquid scintillation counter. The biological activity of peptide analogues was measured as the rate of mmol glucose incorporation into muscle glycogen/g tissue/hr.
The sensitivity of hemidiaphragm muscle tissue to insulin (0.1-100 mU/ml) on glycogen synthesis was first analyzed. The dose response curves for peptide analogues on the insulin-potentiating effect to glycogen synthesis were then measured using cumulative increasing concentrations (10^−3 10 μmol/ml) of peptides in the presence of insulin (1 mU/ml). The biological activity of each peptide analogue was measured as the rate of glucose incorporation into muscle glycogen (μmol/g tissue/hr), and represented by the mean±SEM from eight determinations.
To determine the insulin-potentiating effect of the peptide analogues, the rates of incorporation of glucose into muscle glycogen were measured. The rates of glycogen synthesis (μmol/g tissue/hr) were 0.52±0.05, 0.60±0.04, 1.27±0.06 and 1.52±0.07 inresponse to 0.33, 1, 3.33 and 10 mU/ml insulin respectively, as shown in FIG. 1.
The insulin-potentiating effect of the peptide analogues was then observed by studying their dose response. curves for glucose incorporation into glycogen in the presence of 1 mU/ml exogenous insulin. The effects of peptides 1, 3, 4, 6, 7, 8 and 10 were evident at doses higher than 0.01 μmol/ml, and continued to increase with increasing peptide concentration to 1 μmol/ml, as shown in FIGS. 2A and 2B.
The activity of each analogue was assessed by in vitro measurement of glycogen synthesis in muscle, as described above.

Experiment [5] concerns Zucker fatty (fa/fa) rats. As to the kind of experiment: Basal blood glucose determination after i.p. peptide. Format: in vivo, rat. To be noted: 10 μmol/kg body weight i.p., over 150 min, vs saline. On the procedure: Overnight-fasted Zucker fatty(fa/fa) female rats were anaesthetized with sodium pentobarbitone (60 mg/kg body weight). After 45 min, basal blood glucose samples were taken from the tail vein, followed immediately by intraperitoneal (i.p.) injection of saline (control) or the peptide analogue (test, 10 μmol/kg body weight) in 0.4 ml of saline. Blood samples were taken at 15, 30, 60, 90, 120, 150 minutes after injection, and the blood glucose level in each sample was measured immediately by the glucose oxidase method, using a YSI Model-2300 STAT glucose analyzer (Yellow Spring, Ohio). Six animals for each group were used.
The reduction of basal blood glucose levels in animals by different peptide analogues administered intraperitoneally (i.p.)at a dose of 10 μmol/kg body weight was measured for over 150 min.

Ends that are not written are not given here.

On to “Leu-Ser-Arg-Leu-Phe-Asu-Asn-Ala (LSRLFDNA-NH2; not fully specified; printed as Leu-Ser-Arg-Leu-Phe-Asu-Asn-Ala) [Peptide 7]”, for which the “insulin-potentiating effect on decreasing blood glucose in IVITT (in words)” value in experiment [1] is reported as “significant”. In addition, the “Reduction in Blood Glucose” value came out at 1.08 ± 0.09 mmol/L in experiment [1] (15 min); 1.38 ± 0.13 mmol/L in experiment [1] (30 min); 1.65 ± 0.12 mmol/L in experiment [1] (45 min); 1.65 ± 0.12 mmol/L in experiment [1] (45 min, listed as Asu^11-hGH(6-13)); 1.77 ± 0.19 mmol/L in experiment [1] (60 min). The glucose tolerance result in experiment [2] is on record as “improve glucose tolerance”. Besides, in experiment [3], the “effect on insulin receptor tyrosine kinase activity” value was “stimulating”.

Consider “Arg-Leu-Phe-Asu-Asn-Ala (RLFDNA-NH2) [Peptide 6]”, for which the “insulin-potentiating activity on in vitro glycogen synthesis (in words)” value in experiment [4] is “diminished insulin-potentiating effect”. Further, the “hypoglycaemic effect (reduction of basal blood glucose level)” value in experiment [5] is given as “significant hypoglycaemic effects”; in experiment [5] (listed as Asu^11-hGH(8-13) amide), “diminished insulin-potentiating effect”. Moreover, the “insulin-potentiating effect on decreasing blood glucose in IVITT (in words)” value in experiment [1] is recorded as “significant”; in experiment [1] (listed as Asu^11-hGH(8-13)) it was “lower potency”. Further, the “Reduction in Blood Glucose” value in experiment [1] (15 min) was 0.93 ± 0.17 mmol/L; in experiment [1] (30 min) it was 1.58 ± 0.12 mmol/L; in experiment [1] (45 min), 1.50 ± 0.15 mmol/L; in experiment [1] (60 min), 1.50 ± 0.19 mmol/L.
